According to patent publication US20130156708A1, “PHENOL DERIVATIVES AS ANTIMICROBIAL AGENTS” (Symrise AG, priority 2011, published 2013):
≈ marks a conversion by molar mass, not a printed value.

Legend:
[1] = Taste test in alcohol free mouth wash formulation; settings: compound 0.1%, peppermint Optamint Flavor 0.15%, versus sample without compound
Excerpt: The compounds of formulae (IIa) and (IIIa) were further tested in oral care formulations. In particular, an alcohol free mouth wash formulation in combination with a standard peppermint flavor (Optamint® Flavor, dosage 0.15%) plus compound of formula (IIa) or (IIIa), respectively, (dosage 0.1%) was compared with a sample without any compound of formula (I), but being otherwise identically composed. The taste impressions of the samples including the respective compound of formula (IIa) or (IIIa) are described as follows: […]

[2] = system: E. coli; assay: Fast time-kill test, inactivation time for 99.9% kill, E. coli; assay type: cell-based; settings: Escherichia coli; 0.1% concentration; averages of four independent experiments
Description: (§1) This protocol gives an exact description on how to perform a fast time-kill experiment. Fast time-kill experiments serve to determine the antimicrobial kill activity of a specific substance or substance mixture against a particular microorganism or a mixture of microorganisms. To kill (synonymous: to inactivate) a microorganism means that after the treatment, the microorganism has permanently lost its capacity to grow or to replicate.
(§2) Microorganisms are grown in suitable growth medium allowing for exponential growth. For E. coli, Salmonella spp., S. aureus, P. aeruginosa, and for C. albicans tryptic soy broth medium is used. One hundred ml Erlenmeyer flasks containing 20 ml growth medium are inoculated with 10^5 to 10^8 microbial cells/ml and incubated overnight under continuous shaking (120 rpm) at a temperature allowing for exponential growth, usually between 20 and 37° C. The temperature is chosen in such a way to ensure the exponential growth for the used microorganisms, for E. coli, Salmonella spp., S. aureus, P. aeruginosa, and for C. albicans 37° C. is used.
(§3) After reaching the stationary growth phase, 100 μl of this culture are transferred in a second Erlenmeyer flask containing 20 ml of the same growth medium. This culture is shaken for further (preferably to up to 7 hours) under identical conditions as described above. Subsequently, this culture is diluted in the same growth medium to 10^5 to 10^9, preferably to 10^6 to 10^8 cells/ml. With this suspension of microorganism (named “microorganism working suspension”) the time-kill test is performed.
(§4) Test substances are dissolved in DMSO, EtOH and/or H2O, preferably in H2O, to prepare a 100× concentrated stock solution. […]
(§5) Samples are taken from reaction tubes after defined time intervals (preferably 1, 2 and 5 min) to determine the number of surviving microorganisms. […] The number of surviving microorganisms is determined by aspiring 100 μl volumes from reaction tubes and mixing it immediately with 900 μl growth medium to prepare a 10^−1 dilution. […]

[3] = system: S. aureus; assay: Fast time-kill test, inactivation time for 99.9% kill, S. aureus; assay type: cell-based; settings: Staphylococcus aureus; 0.1% concentration; averages of four independent experiments
Description: as §1, §2, §3, §4, §5

[4] = system: C. albicans; assay: Fast time-kill test, inactivation time for 99.9% kill, C. albicans; assay type: cell-based, Candida albicans; settings: Candiada albicans; 0.1% concentration; averages of four independent experiments
Description: as §1, §2, §3, §4, §5

[5] = system: E. coli; assay: Minimum inhibitory concentration, E. coli; assay type: cell-based, Escherichia coli; settings: for MIC: Escherichia coli
Excerpt: (§6) Assessment of minimum inhibitory concentrations of thymol and 4-prenylphenol against versus microorganisms relevant for home and personal care:
(§7) The results of comparative assessment of minimum inhibitor concentration for both thymol and 4-prenylphenol are listed in Table 2.

[6] = system: S. aureus; assay: Minimum inhibitory concentration, S. aureus; assay type: cell-based, Staphylococcus aureus; settings: for MIC: Staphylococcus aureus
Excerpt: as §6, §7

[7] = system: C. albicans; assay: Minimum inhibitory concentration, C. albicans; assay type: cell-based, Candida albicans; settings: for MIC: Candida albicans
Excerpt: as §6, §7

[8] = system: Aspergillus niger; assay: Minimum inhibitory concentration, A. niger; assay type: cell-based; settings: for MIC: Aspergillus niger
[9] = system: microorganisms relevant for home and personal care; assay: Minimum inhibitory concentration, further microorganisms of Table 2; assay type: cell-based
Excerpt: as §6, §7

[10] = system: E. coli; assay: Synergistic activity (Kull) in fast time-kill experiments, E. coli; assay type: cell-based, Escherichia coli
Description: (§8) This protocol gives an exact description on how to perform a fast time-kill experiment. Fast time-kill experiments serve to determine the antimicrobial kill activity of a specific substance or substance mixture against a particular microorganism or a mixture of microorganisms.
as §2, §3
(§9) Test substances are dissolved in DMSO, EtOH and/or H2O, preferably in H2O, to prepare a 100× concentrated stock solution. In case the test substance is not completely soluble in H2O, the solvents are chosen in to ensure a complete dissolution of the test substance, the chosen concentration of DMSO and EtOH being as low as possible. For solid substances, complete dissolution has to be ensured. […] Preferably, the concentrations of the test substances in the 100× concentrated stock solution are between 1 and 100%, corresponding to 0.01 to 1% in the final test. The amount of the 100× concentrated stock solution in the final test should not exceed 1% in order to limit the concentration of DMSO or EtOH to 1% in the final test.
(§10) Fast time-kill tests are performed in 1000 μl volumes in 1.5 ml plastic reaction tubes (Eppendorf). The test is started by mixing (in this particular order) 100 μl microorganism working suspension with 890 μl tryptic soy broth growth medium containing 0.1% Tween® 80 and 10 μl 100× concentrated stock solution of test substances. Controls are included that are prepared as described above, but using 100× stock solution without test substances. During the test, tubes are incubated at the same temperature as the microorganisms were grown, usually 20 to 37° C. (for E. coli, Salmonella spp., S. aureus, P. aeruginosa, and for C. albicans 37° C. is used) in an Eppendorf Thermomixer and are vigorously shaken at 1400 rpm.
(§11) Samples are taken from reaction tubes after defined time intervals (preferably 1, 2 and 5 min) to determine the number of surviving microorganisms. At time 0 (immediately after starting the test) samples are taken from control tubes to determine the initial number of microorganisms in the test. The number of surviving microorganisms is determined by aspiring 100 μl volumes from reaction tubes and mixing it immediately with 900 μl growth medium to prepare a 10^−1 dilution. Further dilutions are prepared in this way from 10^−2 to 10^−4. One hundred μl volumes of the different dilutions are plated on tryptic soy broth agar plates and incubated for up to 48 h at the same temperature as the microorganisms were grown, usually 20 to 37° C. (for E. coli, Salmonella spp., S. aureus, P. aeruginosa, and for C. albicans 37° C. is used). Colonies grown on plates are counted and the numbers of surviving microorganisms are calculated for the different treatments and time points. For substances with low minimum inhibitory concentrations (MIC), sufficient dilution below the concentration of the MIC value has to be ensured.

[11] = system: S. aureus; assay: Synergistic activity (Kull) in fast time-kill experiments, S. aureus; assay type: cell-based, Staphylococcus aureus
Description: as §8, §2, §3, §9, §10, §11

[12] = Taste test in silica toothpaste formulation; settings: compound 0.1%, spearmint Optamint Flavor 1%, versus sample without compound
Excerpt: A silica toothpaste formulation in combination with a standard spearmint flavour (Optamint® Flavor, dosage 1%) plus the respective compound of formula (IIa) or (IIb) dosage 0.1% was compared to a sample without such compound of formula (I). The taste impressions of the sample including the compound of formula (IIa) or (IIb), respectively, are described as follows: […]

[13] = system: E. coli, S. aureus and C. albicans; assay: Fast time-kill test, statements of the text over all investigated microorganisms; assay type: cell-based; settings: 0.1% concentration, span over E. coli, averages of four independent experiments
Description: as §1
as §2, with “The temperature is chosen in such a way to ensure the exponential growth for the used microorganisms, for E. coli, Salmonella spp., S. aureus, P. aeruginosa, and for C. albicans 37° C. is used.” left out
as §5

In the case of `CC(C)=CCc1ccccc1O` [IIIa, 2-(3-Methylbut-2-enyl)phenol], the “numbing/tingling feeling on the tongue” value [1] is reported as “clearly leaves a numbing/tingling feeling on the tongue”.

For `CC(C)=CCc1ccc(O)cc1` [IIa, 4-(3-Methylbut-2-enyl)phenol], the “Inactivation time for 99.9% kill” value [2] was 1.3 min, the “Inactivation time for 99.9% kill” value [3] was 1.2 min and the “Inactivation time for 99.9% kill” value [4] was 1.4 min. For the same compound, the “minimum inhibitory concentration compared with Thymol” value ([5]; E. coli) was “equal to the one of Thymol”, the MIC [5] was 125 µg/mL (≈ 771 µM) and the “minimum inhibitory concentration compared with Thymol” value ([6]; S. aureus) was “equal to the one of Thymol”. The MIC [6] was 125 µg/mL (≈ 771 µM), the “minimum inhibitory concentration compared with Thymol” value ([7]; C. albicans) was “a factor of two lower” and the MIC [7] was 125 µg/mL (≈ 771 µM). The “antimicrobial activity against the mould A. niger” value [8] was “strong antimicrobial activity”, the MIC [8] was 64 µg/mL (≈ 394 µM) and the MIC ([9]; Corynebacterium xerosis) was 125 µg/mL (≈ 771 µM). The MIC ([9]; Fusobacterium nucleatum) was 64 µg/mL (≈ 394 µM), the MIC ([9]; Malassezia furfur) was 1000 µg/mL (≈ 6160 µM) and the MIC ([9]; Porphyromonas gingivalis) was 64 µg/mL (≈ 394 µM). The MIC ([9]; Pseudomonas aeruginosa) was > 1000 µg/mL, the MIC ([9]; Salmonalla enteritidis) was 125 µg/mL (≈ 771 µM) and the MIC ([9]; Staphylococcus epidermidis) was 125 µg/mL (≈ 771 µM). For the same compound, the MIC ([9]; Streptococcus mutans) was 125 µg/mL (≈ 771 µM), the Inactivation rate k ([10]; 4-Prenylphenol 250 ppm) was 0.94 min⁻¹ and the “Inactivation time T99.9%” value ([10]; 4-Prenylphenol 250 ppm) was 7.4 min. For the same compound, the “Reduction of surviving microorganisms” value ([10]; 4-Prenylphenol 250 ppm) was 0.39, the Inactivation rate k ([11]; 4-Prenylphenol 400 ppm) was 1.2 min⁻¹ and the “Inactivation time T99.9%” value ([11]; 4-Prenylphenol 400 ppm) was 5.6 min. The “Reduction of surviving microorganisms” value ([11]; 4-Prenylphenol 400 ppm) was 0.29, the “numbing/tingling feeling on the tongue” value [1] was “clearly leaves a numbing/tingling feeling on the tongue” and the “numbing/tingling feeling on the tongue” value [12] was “clearly leaves a numbing/tingling feeling on the tongue”.

With `C=C(C)CCc1ccc(O)cc1` [IIb, 4-(3-Methylbut-3-enyl)phenol] the “numbing/tingling feeling on the tongue” value [12] was “clearly leaves a numbing/tingling feeling on the tongue”.

For `COC(=O)c1ccc(O)cc1` [Methylparaben, reference compound], the Inactivation rate k ([10]; Methylparaben 2500 ppm) was 0.09 min⁻¹, the “Inactivation time T99.9%” value ([10]; Methylparaben 2500 ppm) was 89.1 min and the “Reduction of surviving microorganisms” value ([10]; Methylparaben 2500 ppm) was 0.91. The Inactivation rate k ([11]; Methylparaben 5000 ppm) was 0.40 min⁻¹, the “Inactivation time T99.9%” value ([11]; Methylparaben 5000 ppm) was 18.1 min and the “Reduction of surviving microorganisms” value ([11]; Methylparaben 5000 ppm) was 0.67.

In the case of `Cc1ccc(C(C)C)c(O)c1` [Thymol, reference compound], the “Inactivation time for 99.9% kill” value [2] is reported as 4.1 min, the “Inactivation time for 99.9% kill” value [3] is reported as 4.9 min and the “Inactivation time for 99.9% kill” value [4] is reported as 8.7 min. The MIC [5] was 125 µg/mL (≈ 832 µM), the MIC [6] was 125 µg/mL (≈ 832 µM) and the MIC [7] was 250 µg/mL (≈ 1660 µM). The MIC [8] was 1000 µg/mL (≈ 6660 µM), the MIC ([9]; Corynebacterium xerosis) was 125 µg/mL (≈ 832 µM) and the MIC ([9]; Fusobacterium nucleatum) was 125 µg/mL (≈ 832 µM). For the same compound, the MIC ([9]; Malassezia furfur) was 1000 µg/mL (≈ 6660 µM), the MIC ([9]; Porphyromonas gingivalis) was 125 µg/mL (≈ 832 µM) and the MIC ([9]; Pseudomonas aeruginosa) was 1000 µg/mL (≈ 6660 µM). The MIC ([9]; Salmonalla enteritidis) was 250 µg/mL (≈ 1660 µM), the MIC ([9]; Staphylococcus epidermidis) was 250 µg/mL (≈ 1660 µM) and the MIC ([9]; Streptococcus mutans) was 250 µg/mL (≈ 1660 µM).

In the case of `Oc1cc(Cl)ccc1Oc1ccc(Cl)cc1Cl` [Triclosan], the “Inactivation time for 99.9% kill” value [2] is reported as >100 min, the “Inactivation time for 99.9% kill” value [3] is reported as >100 min and the “Inactivation time for 99.9% kill” value [4] is reported as >100 min. For the same compound, the “Inactivation time for a 99.9% kill” value [13] was > 100 min.
